From US10821152B2, “Methods, agents and compositions for treatment of inflammatory conditions” (Betanien Hospital, priority 2014, dated 2020)
“And” between values parts separate entries of the source, which are not always exact repeats. Equal entries are not always repeated. Non-standard residues stand in square brackets, D forms with d. Residues, ends and D or L forms follow the SMILES beside them. *: point of attachment. dPhe(4-NHCONH2) = NC(=O)Nc1ccc(C[C@@H](N)C(=O)O)cc1; Dihydroorotyl(S) = O=C1C[C@@H](C(=O)*)NC(=O)N1; dPhe(4-Cl) = N[C@H](Cc1ccc(Cl)cc1)C(=O)O; Phe(4-NH2) = Nc1ccc(C[C@H](N)C(=O)O)cc1; d2Nal = N[C@H](Cc1ccc2ccccc2c1)C(=O)O; Lys(iPr) = CC(C)NCCCC[C@H](N)C(=O)O; d3Pal = N[C@H](Cc1cccnc1)C(=O)O

What was measured:
Format in all cases: in vivo, human
[1] = test system: patient with lithium induced psoriasis; assay: Treatment of psoriasis (PASI, serum uric acid, testosterone)
Method: The PASI score is a standardized score for assessing disease activity in psoriasis.
He therefore received testosterone supplementation in the form of Testogel containing 50 mg of testosterone, first daily; thereafter every 3 days to maintain testosterone levels within the normal range.
There are very few trials of lithium induced psoriasis. One trial examined 15 patients with psoriasis who were taking lithium.

[2] = test system: patient with ankylosing spondylitis; assay: Treatment of ankylosing spondylitis patient (BASDAI, laboratory variables); details: AS patient
Source text: Diagnosed with ankylosing spondylitis in 1984, HLAB27 positive, with repeated iridocyclitis. Used non-steroidal anti-inflammatory drugs previously. They were offered the TNF-alpha inhibitor Golilimumab in 2010. Their disease activity score was 8.9 in October 2010 (see below for explanation of disease activity score) on initiating Golilimumab; by the June 2012 this score had reduced to 6.6, but by May 2013 the effect had worn off and their score was 7.6. May 2013, they initiated Enbrel treatment, but their disease activity increased from 7.6 to 8.3. Due to their poor response to TNF-alpha therapy, they were offered the GnRH antagonist Degarelix in September 2014.
Disease activity in ankylosing spondylitis is measured by the BASDAI (Bath Ankylosing Spondylitis Disease Activity Index1), has been extensively validated in clinical trials, 2, 3 and is one of the most commonly used outcome measures in clinical trials. This is a componsite index that evaluates fatigue, axial and peripheral pain, stiffness and enthesopathy. Their BASDAI was at 8.7 at baseline. In September 2014 they received their first dose of Degarelix 240 mg sc. By 2 weeks, their BASDAI had reduced to 6.8, and by 6 weeks it had reduced to 5.8. This is the lowest BASDAI score they have ever had since we first started using this method of assessment 4 years ago in 2010. Their morning stiffness lasted 4 hours at baseline, by 6 weeks their morning stiffness had reduced to 2 hours. They had their second dose of Degarelix 80 mg s.c in October 2014. Lumbar flexion and maximum arm abduction were increased after 6 weeks of treatment.
Response to therapy in clinical practice is defined as improvement of 2 units or 50% on a 0-10 scale of the BASDAI, and expert opinion that the treatment should be continued. Their reduction by 6 weeks was 2.9 units, and 7.1 units with an 82% BASDAI score improvement by 9 weeks, and we shall continue treatment. A BASDAI 50% improvement is defined as a major clinical response. […] For comparison, approximately 50-60% of patients achieve a BASDAI 50 by 12 weeks on TNF inhibitors (4). Their ESR has decreased from 46 mm to 23 mm, which is their lowest ESR reading in 19 years. […] By 9 weeks of GnRH antagonist therapy, their kidney function has normalized, and fasting glucose reduced from 7.4 to 6.5 mmol/L. By 3 months, the effect on their ankylosing spondylitis remained, creatinine was at 98 umol/L, with a glomerular filtration rate of 66 ml/min/1.73 m2 in December 2014.

[3] = test system: patients with rheumatoid arthritis; assay: Long term Degarelix treatment of rheumatoid arthritis patients: clinical variables; set-up: LH: unit not given beside the values
Source text: [table] [table] […] Two examples of patients with continued RA improvement over several weeks despite stably low levels of LH

[4] = test system: patients with risk factors for cardiovascular disease; assay: Cardiovascular and metabolic risk factors in patients offered Degarelix
Source text: In our patient group who were offered Degarelix, some patients had risk factors for cardiovascular disease, metabolic syndrome, lipidemia or hypoalphalipoproteinemia (low HDL). None of these patients had recently started medications prior to the GnRH antagonist that could explain the changes in blood pressure, HbA1C, fasting glucose or lipids. See Example 1 for patient information.

Q: Which results are given for CC(=O)N[C@H](Cc1ccc2ccccc2c1)C(=O)N[C@H](Cc1ccc(Cl)cc1)C(=O)N[C@H](Cc1cccnc1)C(=O)N[C@@H](CO)C(=O)N[C@@H](Cc1ccc(NC(=O)[C@@H]2CC(=O)NC(=O)N2)cc1)C(=O)N[C@H](Cc1ccc(NC(N)=O)cc1)C(=O)N[C@@H](CC(C)C)C(=O)N[C@@H](CCCCNC(C)C)C(=O)N1CCC[C@H]1C(=O)N[C@H](C)C(N)=O [Degarelix] (Ac-[d2Nal][dPhe(4-Cl)][d3Pal]S[Phe(4-NH2)](Dihydroorotyl(S))[dPhe(4-NHCONH2)]L[Lys(iPr)]P[dA]-NH2)?
A: testosterone levels (normal 8-35 nmol/L) ([1]; after the first week): < 1 nmol/L; improvement in psoriasis ([1]; at 6 months): stable; Psoriasis Area Severity Index (PASI) score ([1]; baseline): 53.6; serum uric acid (230-480 umol/L) ([1]; baseline): 485 µmol/L; testosterone levels (normal 8-35 nmol/L) ([1]; before therapy): 12 nmol/L; PASI reduction ([1]; by 8 weeks): 23%; serum uric acid (230-480 umol/L) ([1]; by 8 weeks): 432 µmol/L; testosterone levels (normal 8-35 nmol/L) ([1]; week 8, under testosterone substitution (Testogel)): 9 nmol/L; ASAS response (at least 80% improvement) [2]: achieved an ASAS 80; CRP ([2]; 10.09.14 (baseline)): <5; Creatinine (60-105 umol/L) ([2]; 10.09.14 (baseline)): 112↑ umol/L; ESR <20 mm ([2]; 10.09.14 (baseline)): 46 mm and 46↑ mm; Glomerular filtration rate (>60 ml/min/1.73 m^2) ([2]; 10.09.14 (baseline)): 56↓ ml/min/1.73 m^2; Glucose fasting (4.0-6.0 mmol/L) ([2]; 10.09.14 (baseline)): 7.4 mmol/L; Urate (230-480 umol/L) ([2]; 10.09.14 (baseline)): 515 umol/L and 515↑ umol/L; CRP ([2]; 10.11.14): <5; Creatinine (60-105 umol/L) ([2]; 10.11.14): 99 µmol/L; Glomerular filtration rate (>60 ml/min/1.73 m^2) ([2]; 10.11.14): 65 ml/min/1.73 m^2; Urate (230-480 umol/L) ([2]; 10.11.14): 426 µmol/L; Glucose fasting (4.0-6.0 mmol/L) ([2]; 10.11.14 (by 9 weeks)): 6.5 mmol/L; CRP ([2]; 24.09.14): <5; Creatinine (60-105 umol/L) ([2]; 24.09.14): 114↑ umol/L; ESR <20 mm ([2]; 24.09.14): 31↑ mm; Glomerular filtration rate (>60 ml/min/1.73 m^2) ([2]; 24.09.14): 55↓ ml/min/1.73 m^2; Urate (230-480 umol/L) ([2]; 24.09.14): 512↑ umol/L; CRP ([2]; 27.10.14): <5; Creatinine (60-105 umol/L) ([2]; 27.10.14): 111↑ umol/L; ESR <20 mm ([2]; 27.10.14): 28↑ mm; Glomerular filtration rate (>60 ml/min/1.73 m^2) ([2]; 27.10.14): 56↓ ml/min/1.73 m^2; Urate (230-480 umol/L) ([2]; 27.10.14): 495↑ umol/L; Lumbar flexion and maximum arm abduction ([2]; after 6 weeks of treatment): increased; BASDAI ([2]; baseline): 8.7; morning stiffness ([2]; baseline): 4 h; BASDAI ([2]; by 2 weeks): 6.8; creatinine ([2]; by 3 months (December 2014)): 98 µmol/L; glomerular filtration rate ([2]; by 3 months (December 2014)): 66 ml/min/1.73 m2; BASDAI ([2]; by 6 weeks): 5.8; BASDAI reduction ([2]; by 6 weeks): 2.9 units; morning stiffness ([2]; by 6 weeks): 2 h; BASDAI reduction ([2]; by 9 weeks): 7.1 units; BASDAI score improvement ([2]; by 9 weeks): 82%; kidney function ([2]; by 9 weeks): normalized; ACR % response ([3]; RA Patient 3, 4 wks): 30%; ESR ([3]; RA Patient 3, 4 wks): 41; LH ([3]; RA Patient 3, 4 wks): <0.3; ACR % response ([3]; RA Patient 3, 8 wks): 40%; ESR ([3]; RA Patient 3, 8 wks): 36; LH ([3]; RA Patient 3, 8 wks): <0.3; ACR % response ([3]; RA Patient 3, 12 wks): 50%; ESR ([3]; RA Patient 3, 12 wks): 20; LH ([3]; RA Patient 3, 12 wks): <0.3; ESR ([3]; RA Patient 3, baseline): 46; LH ([3]; RA Patient 3, baseline): 2; ACR % response ([3]; RA Patient 4, 3½ wks): 20%; ESR ([3]; RA Patient 4, 3½ wks): 68; LH ([3]; RA Patient 4, 3½ wks): <0.3; ACR % response ([3]; RA Patient 4, 9 wks): 50%; ESR ([3]; RA Patient 4, 9 wks): 36; LH ([3]; RA Patient 4, 9 wks): <0.3; ESR ([3]; RA Patient 4, baseline): 78; LH ([3]; RA Patient 4, baseline): 8; power Doppler (inflammatory activity) on ultrasound, shoulder and right MCP 4 ([3]; RA Patient 5, after treatment (FIG. 2B, 2D, 2F)): no power Doppler; effusion over the right wrist on ultrasound ([3]; RA Patient 6, by 3.5 weeks (FIG. 4)): much smaller; Physician assessment (0-100) ([3]; baseline, c1-c6=RA Patients 1-6): 85 and 90 and 80 and 70; fasting glucose ([4]; Patient 1, October 2014): 6.3 mmol/L; fasting glucose ([4]; Patient 1, September 2014): 6.6 mmol/L; metabolic syndrome criteria ([4]; Patient 1, after degarelix treatment): no longer fulfills the criteria for metabolic syndrome; HBA1c (4.3-6.1%) ([4]; Patient 1, at 8 months): 5.7%; HBA1c (4.3-6.1%) ([4]; Patient 1, baseline): 6.4%; blood pressure ([4]; Patient 1, baseline): 151/90; HBA1c (4.3-6.1%) ([4]; Patient 1, by 2 weeks): 6.1%; fasting glucose (4.0-6.0) ([4]; Patient 4, 3 months after starting Degarelix): 6.6 mmol/L; fasting glucose (4.0-6.0) ([4]; Patient 4, April 2014, before Degarelix): 8.9 mmol/L; fasting glucose (4.0-6.0) ([4]; Patient 4, December 2013, before Degarelix): 8.5 mmol/L; HBA1c (4.3-6.1%) ([4]; Patient 4, baseline): 6.9%; HBA1c (4.3-6.1%) ([4]; Patient 4, by 1 month): 6.6%; HBA1c (4.3-6.1%) ([4]; Patient 4, by 2 months): 6.4%; HBA1c (4.3-6.1%) ([4]; Patient 4, by 4 months): 6.2%; fasting glucose (4.0-6.0) ([4]; Patient 4, by 4 months): 6.0 mmol/L; HBA1c (4.3-6.1%) ([4]; Patient 4, by 12 months): 5.9%; HDL (1.0-2.7 mmol/L) ([4]; Patient 7, baseline September 2014): 0.68 mmol/L; HDL (1.0-2.7 mmol/L) ([4]; Patient 7, by 1 week): 0.73 mmol/L; HDL (1.0-2.7 mmol/L) ([4]; Patient 7, by 2 weeks): 0.75 mmol/L; HDL (1.0-2.7 mmol/L) ([4]; Patient 7, by 3 weeks): 1.13 mmo/L
